{
  "source": "patent US9682037B2",
  "about": "“Non-mucoadhesive film dosage forms” (APR APPLIED PHARMA RESEARCH S.A., priority 2006, dated 2017)",
  "origin": "cited, not measured here",
  "key": {"[1]": {"settings": "oral"}, "[2]": {"settings": "oral 5 mg once daily for 10 days, normal healthy volunteers"}},
  "note": "Structures can show the parent of a compound that is named as a salt. Where two headings read alike, the source gives them in different places.",
  "data": [
    {"smiles": "Cc1nccn1CC1CCc2c(c3ccccc3n2C)C1=O", "note": "(racemic) [Ondansetron Base, (±) 1,2,3,9 tetrahydro-9-methyl-3-[(2-methyl-1H-imidazol-1-yl)methyl]-4H-carbazol-4-one]", "values": [
      {"measurement": "Bioavailability", "setting": "8 mg tablet", "value": "(56% for 8 mg tablet)"},
      {"measurement": "Bioavailability in Healthy Subjects", "setting": "healthy subjects", "value": "Bioavailability in Healthy Subjects = ca. 45-75%"},
      {"measurement": "Tmax", "setting": "in vivo", "value": "Tmax = 1.5-2.5 Hours hours"},
      {"measurement": "Effect of food on absorption", "setting": "result in words", "value": "Bioavailability slightly enhanced by food"},
      {"measurement": "Linearity / dose proportionality of pharmacokinetics", "setting": "result in words", "value": "Plasma concentrations are not dose"}
    ]},
    {"smiles": "Cc1nnc2n1-c1ccc(Cl)cc1C(c1ccccc1)=NC2", "note": "[Alprazolam]", "values": [
      {"measurement": "Tmax", "setting": "in vivo", "value": "Tmax = 1-2 hours"},
      {"measurement": "Cmax", "setting": "over 0.3-3.0 mg dose range", "value": "Cmax = 8.0-37 ng/ml over 0.3-3.0 mg dose range"},
      {"measurement": "Linearity / dose proportionality of pharmacokinetics", "setting": "result in words", "value": "Plasma levels proportionate to dose given"}
    ]},
    {"smiles": "O=C1CN=C(c2ccccc2Cl)c2cc([N+](=O)[O-])ccc2N1", "note": "[Clonazepam]", "values": [
      {"measurement": "Absolute Bioavailability", "setting": "in vivo", "value": "Absolute bioavailability = ca. 90%"},
      {"measurement": "Tmax", "setting": "in vivo", "value": "Tmax = 1-4 hours"}
    ]},
    {"smiles": "Clc1ccc2c(c1)CCc1cccnc1C2=C1CCNCC1", "note": "[Desloratadine, 8-chloro, 6,11-dihydro-11-(4-piperdinylidene)-5H-benzo[5,6]cyclohepta[1,2-b]pyridine]", "values": [
      {"measurement": "AUC", "setting": "[2]", "value": "AUC = 56.9 ng hr/ml*"},
      {"measurement": "Tmax", "setting": "[2]", "value": "Tmax = 3.0 hours*"}
    ]},
    {"smiles": "COc1ccc2c3c1O[C@H]1C[C@@H](O)C=C[C@@]31CCN(C)C2", "note": "[Galantamine HBr]", "values": [
      {"measurement": "Tmax", "setting": "fasted", "value": "Tmax = ca. 60 minutes (fasted)"},
      {"measurement": "Absolute Bioavailability", "setting": "in vivo", "value": "Absolute bioavailability −= ca. 90%"},
      {"measurement": "Administration with food delays absorption (Tmax) by", "setting": "with food", "value": 1.5, "unit": "h"}
    ]},
    {"smiles": "O=C1Nc2ccc(Cl)cc2C(c2ccccc2Cl)=NC1O", "note": "(centres unmarked) [Lorazepam]", "values": [
      {"measurement": "Cmax", "setting": "2 mg", "value": 20, "unit": "ng/mL"},
      {"measurement": "Absolute Bioavailability", "setting": "in vivo", "value": "Absolute bioavailability = ca. 90%"},
      {"measurement": "Tmax", "setting": "in vivo", "value": "Tmax = ca. 120 minutes"},
      {"measurement": "Linearity / dose proportionality of pharmacokinetics", "setting": "result in words", "value": "dose proportionate"}
    ]},
    {"smiles": "Cc1cc2c(s1)Nc1ccccc1N=C2N1CCN(C)CC1", "note": "[Olanzapine, 2-methyl-4-(4-methyl-1-piperazinyl)-10H-thieno[2,3-b][1,5]benzodiazepine]", "values": [
      {"measurement": "steady state conc. relative to conc. after single doses", "setting": "administration once daily", "value": "ca. twice the conc. after single doses"},
      {"measurement": "Absolute Bioavailability", "setting": "in vivo", "value": "Absolute Bioavailability = ca. 60%"},
      {"measurement": "Tmax", "setting": "in vivo", "value": "Tmax = 6.0 hours"},
      {"measurement": "Linearity / dose proportionality of pharmacokinetics", "setting": "result in words", "value": "Linear pharmacokinetics over clinical dosing"}
    ]},
    {"smiles": "Cc1nc2n(c(=O)c1CCN1CCC(c3noc4cc(F)ccc34)CC1)CCCC2", "note": "[Risperidone]", "values": [
      {"measurement": "Absolute Bioavailability", "setting": "in vivo", "value": "Absolute Bioavailability = ca. 70% (CV = 25%)"},
      {"measurement": "Tmax", "setting": "in vivo", "value": "Tmax = 1.0 hour hours"}
    ]},
    {"smiles": "CCN(C)C(=O)Oc1cccc([C@H](C)N(C)C)c1", "note": "[Rivastigmine Tartrate]", "values": [
      {"measurement": "Absolute Bioavailability", "setting": "3.0 mg dose", "value": "Absolute Bioavailability = ca. 36% for 3.0 mg"},
      {"measurement": "increase in AUC on doubling dose", "setting": "doubling dose from 3 to 6 mg BID", "value": "Doubling dose from 3 to 6 mg BID → three fold"},
      {"measurement": "Tmax", "setting": "fasted", "value": "Tmax = 1.0 hours (fasted state)"},
      {"measurement": "Linearity / dose proportionality of pharmacokinetics", "setting": "result in words", "value": "Linear pharmokinetics up to 3 mg BID"},
      {"measurement": "Administration with food delays absorption (Tmax) by", "setting": "with food", "value": 1.5, "unit": "h"},
      {"measurement": "Food decreases/lowers Cmax by", "setting": "with food", "value": "~30", "unit": "%"}
    ]},
    {"smiles": "CCCc1nn(C)c2c(=O)[nH]c(-c3cc(S(=O)(=O)N4CCN(C)CC4)ccc3OCC)nc12", "note": "[Sildenafil Citrate]", "values": [
      {"measurement": "Tmax", "setting": "fasted", "value": "0.5 to 2", "unit": "h"},
      {"measurement": "Cmax", "setting": "fasted, 100 mg dose", "value": "Cmax = ca. 450 ng/ml.(fasted) (100 mg dose)"},
      {"measurement": "Absolute Bioavailability", "setting": "in vivo", "value": "Absolute bioavailability = ca. 40%"}
    ]},
    {"smiles": "CNS(=O)(=O)Cc1ccc2[nH]cc(CCN(C)C)c2c1", "note": "[Sumatriptan Succinate, 3-[2-(dimethylamino)ethyl]-N-methyl-indole-5-methanesulfonamide]", "values": [
      {"measurement": "Cmax", "setting": "25 mg", "value": 18, "unit": "ng/mL"},
      {"measurement": "Cmax range", "setting": "25 mg", "value": "7 to 47", "unit": "ng/mL"},
      {"measurement": "Cmax", "setting": "100 mg", "value": 51, "unit": "ng/mL"},
      {"measurement": "Cmax range", "setting": "100 mg", "value": "(range 28-100 ng/ml) (100 mg)"},
      {"measurement": "High fat meal: AUC increased by", "setting": "100 mg tablets", "value": 12, "unit": "%"},
      {"measurement": "High fat meal: Cmax increased by", "setting": "100 mg tablets", "value": 15, "unit": "%"},
      {"measurement": "Tmax", "setting": "during migraine attack", "value": "~2.5", "unit": "h"},
      {"measurement": "Absolute Bioavailability", "setting": "in vivo", "value": "Absolute bioavailability = ca. 15%"},
      {"measurement": "Cmax during a migraine attack versus when migraine free", "setting": "in vivo", "value": "Cmax is same during a migraine attack and when"},
      {"measurement": "Linearity / dose proportionality of pharmacokinetics", "setting": "result in words", "value": "Single dose → dose proportionality in extent of"},
      {"measurement": "Tmax", "setting": "when migraine free", "value": "~2.0", "unit": "h"}
    ]},
    {"smiles": "CCCc1nc(C)c2c(=O)[nH]c(-c3cc(S(=O)(=O)N4CCN(CC)CC4)ccc3OCC)nn12", "note": "[Vardenafil HCl]", "values": [
      {"measurement": "Tmax", "setting": "fasted", "value": "0.5 to 2", "unit": "h"},
      {"measurement": "Tmax median", "setting": "fasted", "value": 1, "unit": "h"},
      {"measurement": "Cmax", "setting": "fasted, 20 mg dose", "value": "10 to 25", "unit": "ng/mL"},
      {"measurement": "Cmax median", "setting": "fasted, 20 mg dose", "value": "~18", "unit": "ng/mL"},
      {"measurement": "Administration with high fat meal lowers Cmax by", "setting": "high fat meal", "value": "Cmax by ca. 18-50%"},
      {"measurement": "Absolute Bioavailability", "setting": "in vivo", "value": "Absolute bioavailability = ca. 15%"}
    ]},
    {"smiles": "CNC[C@H](O)c1cccc(O)c1", "note": "[phenylephrine]", "values": [
      {"measurement": "absolute bioavailability when ingested orally", "setting": "[1]", "value": "approximately 40%"},
      {"measurement": "time to peak plasma concentrations", "setting": "[1]", "value": "1 to 2", "unit": "h"}
    ]}
  ]
}
